Experimental data taken from patent publication US7951905B2, “Synthesis of carbohydrate-templated amino acids and methods of using same” (University of Manitoba, priority 2006, dated 2011).

Columns and labels:
[1] = Trans/cis ratio (Kt/c) of prolyl amide isomers by 500 MHz NMR; type: physicochemical
Method: For each of 11-13, the ratio of trans/cis isomers was calculated by integrating as many well-resolved peaks as possible for each isomer, and taking the average of over all peaks for respective isomers (Taylor et al., 2003). The assignment of N-terminal amide geometry for both major and minor isomers of 11-16 was based on multiple GOESY experiments (Stronehouse et al., 1994).
Experiments were undertaken to determine the Kt/c effect of certain fused bicyclic sugar-proline-containing peptides. A very similar profile of Kt/c for the Ac-Gly-GlcPro-NHMe model compounds 14-16 compared to the Ac-GlcPro-NHMe model compounds 11-13 (Table 1) was observed. In CD3OD, there was an increase in the cis-content as the sugar substituent changed from benzyl 14 (<3%), to hydroxyl 15 (15%), to acetate 16 (25%).

[2] = D2O; n.s. = not soluble (footnote b)

| Structure (SMILES) | % cis isomer ([1]; CD3OD, 500 MHz NMR at 25° C.) [%] | Trans/cis ratio (Kt/c) ([1]; CD3OD, 500 MHz NMR at 25° C.) | % cis isomer ([1]; CDCl3, 500 MHz NMR at 25° C.) [%] | Trans/cis ratio (Kt/c) ([1]; CDCl3, 500 MHz NMR at 25° C.) | solubility in solvent [2] | % cis isomer ([1]; D2O, 500 MHz NMR at 25° C.) [%] | Trans/cis ratio (Kt/c) ([1]; D2O, 500 MHz NMR at 25° C.) |
| --- | --- | --- | --- | --- | --- | --- | --- |
| CNC(=O)[C@@H]1C[C@H]2O[C@H](COCc3ccccc3)[C@H](OCc3ccccc3)[C@@H](OCc3ccccc3)[C@H]2N1C(=O)CNC(C)=O [Compound 14, N-Acetyl-glycyl-(2S,3aR,5R,6R,7S,7aS)-6,7-di-O-benzyl-octahydro-5-(phenylmethyl hydroxymethyl)-pyrano[3,2-b]pyrrole-2-carboxamide N′-methylamide] | < 3 | > 30 | 5 | 19 | n.s.^[b] |  |  |
| CNC(=O)[C@@H]1C[C@H]2O[C@H](CO)[C@H](O)[C@@H](O)[C@@H]2N1C(=O)CNC(C)=O [Compound 15, N-Acetyl-glycyl-(2S,3aR,5R,6R,7S,7aS)-6,7-dihydroxy-5-(hydroxymethyl)-octahydro-pyrano[3,2-b]pyrrole-2-carboxamide N′-methylamide] | 15 | 5.7 |  |  |  | 10 | 9 |
| CNC(=O)[C@@H]1C[C@H]2O[C@H](COC(C)=O)[C@H](OC(C)=O)[C@@H](OC(C)=O)[C@H]2N1C(=O)CNC(C)=O [Compound 16, N-Acetyl-glycyl-(2S,3aR,5R,6R,7S,7aS)-6,7-di-O-acetyl-5-(hydroxymethyl-O-acetyl)-octahydro-pyrano[3,2-b]pyrrole-2-carboxamide N′-methylamide] | 25 | 3 | 20 | 4 |  |  |  |
